The target in one experiment is T1, Progesterone-receptor (Oryctolagus cuniculus, UniProt P06186).
T1 construct: from tissue; host or cells: uterus cytosol of primed rabbits
T1 sequence (P06186 1-930): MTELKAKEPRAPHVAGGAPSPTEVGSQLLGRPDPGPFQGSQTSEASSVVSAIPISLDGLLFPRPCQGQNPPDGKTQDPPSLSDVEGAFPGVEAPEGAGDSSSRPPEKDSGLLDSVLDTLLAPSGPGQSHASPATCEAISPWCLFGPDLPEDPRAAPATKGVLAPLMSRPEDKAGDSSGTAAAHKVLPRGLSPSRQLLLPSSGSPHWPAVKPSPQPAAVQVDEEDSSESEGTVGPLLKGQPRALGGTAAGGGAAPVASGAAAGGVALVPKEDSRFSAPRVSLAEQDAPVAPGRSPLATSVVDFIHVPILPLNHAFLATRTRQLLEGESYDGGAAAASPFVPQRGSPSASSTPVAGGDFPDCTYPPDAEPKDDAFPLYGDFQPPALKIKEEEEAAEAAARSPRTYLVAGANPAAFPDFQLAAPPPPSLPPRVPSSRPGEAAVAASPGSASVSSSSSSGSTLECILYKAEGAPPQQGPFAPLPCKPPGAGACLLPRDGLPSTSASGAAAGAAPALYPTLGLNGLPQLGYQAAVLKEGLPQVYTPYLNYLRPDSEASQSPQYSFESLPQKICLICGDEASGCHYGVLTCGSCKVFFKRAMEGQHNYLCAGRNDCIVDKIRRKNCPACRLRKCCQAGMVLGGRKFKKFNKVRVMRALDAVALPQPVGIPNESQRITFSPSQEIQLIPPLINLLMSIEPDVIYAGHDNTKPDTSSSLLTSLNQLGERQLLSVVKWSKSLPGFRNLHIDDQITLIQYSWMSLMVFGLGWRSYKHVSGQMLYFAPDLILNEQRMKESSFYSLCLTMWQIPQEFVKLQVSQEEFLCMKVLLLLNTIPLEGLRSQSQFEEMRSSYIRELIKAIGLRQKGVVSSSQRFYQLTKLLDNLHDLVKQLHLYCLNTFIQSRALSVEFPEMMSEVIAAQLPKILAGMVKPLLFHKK
The experiment is described as follows: Progesterone-receptor binding to uterus-cytosol, tracer 3H-ORG 2058. The following applies: rabbits, primed, 0-4° C., 18 hours, reference progesterone = 100%.

In another experiment the target is T2, 5α-Reductase-Type 2 (Homo sapiens, UniProt P31213).
T2 construct: 5α-Reductase-Type 2-Activity in Genital Dermal Homogenates; from tissue; host or cells: genital dermal (skin) homogenate
T2 sequence (P31213 1-254): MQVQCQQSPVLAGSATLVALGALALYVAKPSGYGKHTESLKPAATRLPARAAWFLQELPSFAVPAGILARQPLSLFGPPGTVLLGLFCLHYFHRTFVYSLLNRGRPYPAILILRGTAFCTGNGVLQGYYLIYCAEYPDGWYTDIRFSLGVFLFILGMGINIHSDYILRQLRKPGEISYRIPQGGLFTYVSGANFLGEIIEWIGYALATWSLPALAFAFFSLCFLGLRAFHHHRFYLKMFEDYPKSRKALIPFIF
The experiment is described as follows: 5α-Reductase-type 2-activity in genital dermal homogenates. The format is biochemical. The following applies: optimized conditions at pH 5.5. The text has this:
(§1) Data for 5α-reductase-type 2-activity in genital dermal homogenates and in vivo data for gestagenic activity are presented by way of example in Tables 1 and 2 below.

The subject of another experiment is pregnancy maintenance. The experiment can be described thus: Mouse pregnancy maintenance test after s.c. administration (gestagenic activity). It counts as in vivo.
Source text: as §1

Each structure is given as a SMILES string.

As for `C[C@]12CC[C@H]3[C@@H](CCC4=C(Cl)C(=O)CC[C@@H]43)[C@@H]1CC/C2=C\Cl` [Compound 1, E-17-Chloromethylene-4-chloro-estr-4-en-3-one], the “PR, Progesterone = 100% (progesterone-receptor binding)” value on Progesterone-receptor came to 60%. Inhibition at 5α-Reductase-Type 2 was half-maximal at 250 nM (IC50). Besides, the Pregnancy rate achieved in the experiment on pregnancy maintenance (0.1 mg/animal/day s.c.) is reported as 0/5; with pregnancy maintenance (1.0 mg/animal/day s.c.), 5/5.

The values are drawn from US6855836B2, “17-Methylene steroids, process for their production and pharmaceutical compositions that contain these compounds” (Jenapharm GmbH & Co. KG, priority 2000, dated 2005).
